Results published in patent US20250134820A1, “PHARMACEUTICAL COMPOSITIONS” (Novartis AG, priority 2021, published 2025).
Structures can show the parent of a compound that is named as a salt.

How the values were obtained:
[1] = ADME/PK profile across tested species; type: in vivo
Source text: (§1) GastroPlus modeling predicted dissolution and/or solubility limitations of the free form of Compound A at high doses.

[2] = Solubility and dissolution rate of the free form in biorelevant media; type: physicochemical
Source text: as §1

[3] = Solubility of Compound A fumarate at 25° C.; type: physicochemical; conditions: for solubility at 24 h: thermodynamic from solid
Method: (§2) Solubility of the fumarate in FaSSIF is 0.09 mg/mL and 0.21 mg/mL in FeSSIF. […] The maximum water uptake by DVS is less than 0.1% up to 95% RH at 25° C.

[4] = Hygroscopicity, water uptake by DVS; type: physicochemical
Method: as §2

[5] = pHmax of the fumarate salt; type: physicochemical; conditions: estimated
Source text: The pHmax of the fumarate salt is estimated to be about 4.5. An increase in pH above 4.5 may potentially increase the risk of disproportionation.

[6] = Disproportionation (XRPD) of ASAP batches; type: physicochemical
Method: The compatibility of Compound A fumarate was further evaluated in 21 days ASAP study involving three different formulation principles, wet granulation, dry blending and roller compaction. The drug load selected for study was 5% w/w, translating to 6.40% w/w of fumarate salt. The XRPD of the samples were evaluated at certain time intervals according to the Safety Protocol in Table 5.
The analysis was done for the samples stored at 21 days.

FC(F)OC1=CC(C(F)(F)F)=CN2C[C@@]3(CCC(F)(F)c4c3ccnc4Cl)N=C12 [free form of Compound A, (S)-1′-chloro-8-(difluoromethoxy)-8′,8′-difluoro-6-(trifluoromethyl)-7′,8′-dihydro-3H,6′H-spiro[imidazo[1,2-a]pyridine-2,5′-isoquinoline]]
Clearance [1]: low | Oral bioavailability [1]: moderate to high | Solubility [2]: poor | Dissolution rate ([2]; in biorelevant media): slow

FC(F)OC1=CC(C(F)(F)F)=CN2C[C@@]3(CCC(F)(F)c4c3ccnc4Cl)N=C12 [Compound A, (S)-1′-chloro-8-(difluoromethoxy)-8′,8′-difluoro-6-(trifluoromethyl)-7′,8′-dihydro-3H,6′H-spiro[imidazo[1,2-a]pyridine-2,5′-isoquinoline]]
Clearance [1]: low to very low | Oral bioavailability [1]: good

FC(F)OC1=CC(C(F)(F)F)=CN2C[C@@]3(CCC(F)(F)c4c3ccnc4Cl)N=C12 [Compound A fumarate, (S)-1′-chloro-8-(difluoromethoxy)-8′,8′-difluoro-6-(trifluoromethyl)-7′,8′-dihydro-3H,6′H-spiro[imidazo[1,2-a]pyridine-2,5′-isoquinoline]]
solubility at 24 h ([3]; 25 °C, aqueous buffer, pH 1.2 to pH 4.7): ≥ 2000 µg/mL | solubility at 24 h ([3]; acetate buffer pH 4.7, aqueous buffer, 25° C., pH 4.7 buffer (acetate)): > 2000 µg/mL | solubility at 24 h ([3]; hydrochloric acid buffer pH 1.2, simulated gastric fluid, 25° C., pH 1.2 buffer (hydrochloric acid)): > 2000 µg/mL | solubility at 24 h ([3]; hydrochloric acid buffer pH 2, simulated gastric fluid, 25° C., pH 2 buffer (hydrochloric acid)): > 2000 µg/mL | solubility at 24 h ([3]; organic solvent or mixture, 25° C., Acetonitrile): > 100000 µg/mL | solubility at 24 h ([3]; organic solvent or mixture, 25° C., Ethanol): > 100000 µg/mL | Solid residues obtained after 24h equilibration ([3]; pH values of 5.4 and above): correspond to the free form | solubility at 24 h ([3]; phosphate buffer pH 6.8, aqueous buffer, 25° C., pH 6.8 buffer (phosphate)): 30 µg/mL | solubility at 24 h ([3]; 25° C., Water): > 2000 µg/mL | solubility at 24 h ([3]; 25° C., pH 2.0 (SGF), simulated gastric fluid): > 2000 µg/mL | solubility at 24 h ([3]; 25° C., pH 5.8 (FeSSIF), fed state simulating intestinal fluid): 210 µg/mL | solubility at 24 h ([3]; 25° C., pH 6.5 (FaSSIF), fasted state simulating intestinal fluid): 90 µg/mL | Hygroscopicity [4]: non hygroscopic | Maximum water uptake by DVS ([4]; up to 95% RH at 25° C.): less than 0.1% | pHmax [5]: about 4.5 | Disproportionation result (XRPD) ([6]; 50° C./75% RH - 21 days): No free form peak | Disproportionation result (XRPD) ([6]; 60° C./80% RH - 21 days): No free form peak | Disproportionation result (XRPD) ([6]; 70° C./41% RH - 21 days): No free form peak | Disproportionation result (XRPD) ([6]; 80° C./50% RH - 21 days): No free form peak
